Measured values from ChEMBL document CHEMBL1149830, “Kadsuracoccinic acids A-C, ring-A seco-lanostane triterpenes from Kadsura coccinea and their effects on embryonic cell division of Xenopus laevis” (J Nat Prod, 2008).

Assays:
[1] = Induction of cleavage arrest in embryonic cells of stage 8 Xenopus laevis blastulae; assay type: functional, cell-based; settings: Blastula
[2] = Growth inhibition of embryonic cells of stage 8 Xenopus laevis blastulae at 10 ug/mL; assay type: functional; settings: Blastula stage
[3] = Induction of cleavage arrest in embryonic cells of stage 8 Xenopus laevis blastulae at 1 ug/mL; assay type: functional, Blastula

O=c1[nH]cc(F)c(=O)[nH]1 [FLUOROURACIL]
IC50 [1]: 26.8 µM
inhibition at 10 µg/mL [2]: 47%

C=C(C)[C@@H]1CC[C@@H]2C(=CC[C@]3(C)/C(=C(/C)CC/C=C(/C)C(=O)O)CC[C@@]23C)[C@@]1(C)CCC(=O)O [KADSURACOCCINIC ACID A]
Activity [3]: 85%
IC50 [1]: 0.68 µM
